Results reported in ChEMBL document CHEMBL1146429, “Stellettamide B, a new indolizidine alkaloid from a sponge of the genus Stelletta” (1997).
Active and inactive are the calls of the source. No cut-off for these calls is given here.

Legend:
[1] = Induction of cleavage of mRNA at 50 ug/mL
[2] = system: Candida albicans; assay: Antimicrobial activity against Candida albicans at 25 ug/mL by paper-disk method; type: functional; conditions: read-out: IZ
[3] = Induction of cleavage of rRNA at 50 ug/mL

Activity [1] | Activity [3] | Structure (SMILES) | zone of inhibition at 25 µg/mL [2] [mm]
Active | Active | CC(C)=CCC[C@@H](C)/C=C/C=C(\C)C(=O)NC[C@@H]1CC[N+]2(C)CCCC[C@H]12 (stereo partly specified) [STELLETTAMIDE B] | 4
Active | Active | CC(C)=CCC[C@@H](C)/C=C/C=C(\C)C(=O)NC(=N)NCCCCNC(=N)N [STELLETTADINE A] | 9
